Experimental data: patent US20120094964A1, “SULFAMOYL BENZOIC ACID DERIVATIVES AS TRPM8 ANTAGONISTS” (priority 2009, published 2012)

Target: T1, human TRPM8 (Homo sapiens, UniProt Q7Z2W7)
T1 construct: expressed in transfected cells
Test: In Vitro human TRPM8 Functional Assay (intracellular Ca2+, Fluo4, FDSS, menthol activation)
Type: cell-based
Settings: HEK293 cells stably expressing human TRPM8; activation with L-(-)-Menthol; 11-point dose-response
Protocol: In Vitro human TRPM8 Functional Assay
The functional activity of compounds was determined by measuring changes in intracellular calcium concentration using a Ca^2+-sensitive fluorescent dye, Fluo4 (Molecular Probes). The changes in fluorescent signal were monitored by the cell imaging technology by Hamamatsu Photonics's Functional Drug Screening System (FDSS).
HEK293 cells stably expressing human TRPM8 were grown in T175 flasks, in a 5% CO2 humidified incubator to about 80% confluence. Media composition consisted of Dulbecco's Modified Eagle Medium (high glucose), 10% fetal calf serum (FCS), 100 units/ml Penicillin, 100 microg/ml Streptomycin and 600 microg/ml Geneticine.
1. Plate-out HEK293-TRPM8 cells (40 microL medium containing 30,000 cells per well) into poly-D-lysine coated 384-well plates (BD FALCON) at 24 hours prior to assay.
1. […] 2. […] 3. Place the plate at room temperature in dark for 1 hour. 4. […] 5. Add 20 microL of compound solutions into each well and leave the plate for 5 minutes under the dark at room temperature. 6. Measure activity by FDSS as follows: • Set the assay plate on the stacker of FDSS • Start the detection of fluorescence intensity • After 30 sec, add 20 microL of 90 microM L-(−)-Menthol
IC50 values for compounds of the present invention were determined from 11-point dose-response studies. Curves were generated using the average of duplicate wells for each data point. Finally, the IC50 values are calculated with the best-fit dose curve determined by XLfit (ID Business Solutions Ltd.).

T1 sequence (Q7Z2W7 whole entry): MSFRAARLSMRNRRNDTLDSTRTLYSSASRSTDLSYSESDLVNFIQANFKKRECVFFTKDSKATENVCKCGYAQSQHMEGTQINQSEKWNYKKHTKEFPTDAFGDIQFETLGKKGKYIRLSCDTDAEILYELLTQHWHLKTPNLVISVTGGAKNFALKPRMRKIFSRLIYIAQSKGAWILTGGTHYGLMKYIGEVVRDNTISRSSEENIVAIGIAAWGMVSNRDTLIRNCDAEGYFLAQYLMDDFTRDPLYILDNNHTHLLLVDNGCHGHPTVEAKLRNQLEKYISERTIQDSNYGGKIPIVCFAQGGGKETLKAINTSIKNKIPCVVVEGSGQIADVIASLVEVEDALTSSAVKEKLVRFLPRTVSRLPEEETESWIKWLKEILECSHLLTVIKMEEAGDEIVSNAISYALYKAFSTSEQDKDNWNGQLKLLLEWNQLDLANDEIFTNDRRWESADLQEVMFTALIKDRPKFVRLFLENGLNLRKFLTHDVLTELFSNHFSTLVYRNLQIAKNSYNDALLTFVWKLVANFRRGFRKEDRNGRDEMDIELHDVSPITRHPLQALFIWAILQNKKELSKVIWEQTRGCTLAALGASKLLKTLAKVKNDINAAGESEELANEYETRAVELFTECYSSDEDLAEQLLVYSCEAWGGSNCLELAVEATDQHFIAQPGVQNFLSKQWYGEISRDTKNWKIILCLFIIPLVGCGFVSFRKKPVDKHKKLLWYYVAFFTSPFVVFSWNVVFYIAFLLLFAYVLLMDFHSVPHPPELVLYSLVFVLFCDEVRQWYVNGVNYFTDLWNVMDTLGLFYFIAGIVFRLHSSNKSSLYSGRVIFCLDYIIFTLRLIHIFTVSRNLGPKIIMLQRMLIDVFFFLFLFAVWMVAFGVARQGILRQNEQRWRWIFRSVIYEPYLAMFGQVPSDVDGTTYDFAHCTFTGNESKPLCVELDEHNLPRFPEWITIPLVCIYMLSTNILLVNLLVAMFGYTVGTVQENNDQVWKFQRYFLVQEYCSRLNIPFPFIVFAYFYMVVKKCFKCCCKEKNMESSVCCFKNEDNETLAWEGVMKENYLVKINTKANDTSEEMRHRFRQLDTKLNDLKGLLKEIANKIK

IC50	Compound
1 to 10 µM	CC(=O)Nc1ccc(S(=O)(=O)N(Cc2ccccc2)c2ccccn2)cc1 [Example 107, N-(4-(N-Benzyl-N-(pyridin-2-yl)sulfamoyl)phenyl)acetamide]
1 to 10 µM	O=S(=O)(c1ccc(F)cc1)N(Cc1ccccc1)c1ccccn1 [Example 108, N-Benzyl-4-fluoro-N-(pyridin-2-yl)benezene-sulfonamide]
1 to 10 µM	O=S(=O)(c1cc(Cl)ccc1Cl)N(Cc1ccccc1)c1ccccn1 [Example 109, N-Benzyl-2,5-dichloro-N-(pyridin-2-yl)benzene sulfonamide]
1 to 10 µM	O=C(O)c1ccc(Cl)c(S(=O)(=O)N(Cc2ccccc2)c2ccc(Cl)cc2)c1 [Example 110, 3-(N-Benzyl-N-(4-chlorophenyl)sulfamoyl)-4-chlorobenzoic acid]
1 to 10 µM	O=C(O)c1cccc(S(=O)(=O)N(Cc2ccccc2)c2cccc(C(F)(F)F)c2)c1 [Example 111, 3-(N-Benzyl-N-(3-(trifluoromethyl)phenyl)sulfamoyl)benzoic acid]
10 to 30 µM	O=C(O)c1cccc(S(=O)(=O)N(Cc2ccccc2)c2ccccc2Cl)c1 [Example 112, 3-(N-Benzyl-N-(2-chlorophenyl)sulfamoyl) benzoic acid]
1 to 10 µM	COc1ccc(N(Cc2ccccc2)S(=O)(=O)c2cccc(C(=O)O)c2)cc1 [Example 113, 3-(N-Benzyl-N-(4-methoxyphenyl)sulfamoyl) benzoic acid]
10 to 30 µM	COc1ccccc1N(Cc1ccccc1)S(=O)(=O)c1cccc(C(=O)O)c1 [Example 114, 3-(N-Benzyl-N-(2-methoxyphenyl)sulfamoyl) benzoic acid]
1 to 10 µM	O=C(O)c1cccc(S(=O)(=O)N(Cc2ccccc2)c2ccc(Cl)cc2)c1 [Example 115, 3-(N-Benzyl-N-(4-chlorophenyl)sulfamoyl) benzoic acid]
10 to 30 µM	O=C(O)c1cccc(S(=O)(=O)N(Cc2ccccc2)c2ccccc2)c1 [Example 116, 3-(N-Benzyl-N-phenylsulfamoyl)benozic acid]
10 to 30 µM	O=C(O)c1cc(S(=O)(=O)N(Cc2ccccc2)c2ccccc2)ccc1Cl [Example 117, 5-(N-Benzyl-N-phenylsulfamoyl)-2-chlorobenzoic acid]
1 to 10 µM	COc1ccccc1N(Cc1ccccc1)S(=O)(=O)c1cc(C(=O)O)ccc1Cl [Example 118, 3-(N-Benzyl-N-(2-methoxyphenyl)sulfamoyl)-4-chlorobenzoic acid]
10 to 30 µM	COc1ccc(N(Cc2ccccc2)S(=O)(=O)c2ccc(Cl)c(C(=O)O)c2)cc1 [Example 119, 5-(N-Benzyl-N-(4-methoxyphenyl)sulfamoyl)-2-chlorobenzoic acid]
1 to 10 µM	O=C(O)c1ccc(Cl)c(S(=O)(=O)N(Cc2ccccc2)c2ccccc2Cl)c1 [Example 120, 3-(N-Benzyl-N-(2-chlorophenyl)sulfamoyl)-4-chlorobenzoic acid]
1 to 10 µM	O=C(O)c1cc(S(=O)(=O)N(Cc2ccccc2)c2ccccc2Cl)ccc1Cl [Example 121, 5-(N-Benzyl-N-(2-chlorophenyl)sulfamoyl)-2-chlorobenzoic acid]

The remaining lines, values behind:

Compound	IC50
COc1ccc(N(C(C)c2ccccc2OC)S(=O)(=O)c2ccc(C)cc2)cc1 (stereo not drawn) [Example 89, N-(4-Methoxyphenyl)-N-(1-(2-methoxyphenyl)ethyl)-4-methylbenzene-sulfonamide]	1 to 10 µM
COc1cccc(N(C(C)c2cc(OC)ccc2OC)S(=O)(=O)c2ccccc2F)c1 (stereo not drawn) [Example 90, N-(1-(2,5-Dimethoxyphenyl)ethyl)-2-fluoro-N-(3-methoxyphenyl)benzene-sulfonamide]	1 to 10 µM
Cc1cccc(N(C(C)c2ccccc2F)S(=O)(=O)c2ccccc2F)c1 (stereo not drawn) [Example 91, 2-Fluoro-N-(1-(2-fluoro-phenyl)ethyl)-N-m-tolyl benzenesulfonamide]	1 to 10 µM
COc1cccc(N(C(C)c2ccccc2F)S(=O)(=O)c2ccccc2F)c1 (stereo not drawn) [Example 92, 2-Fluoro-N-(1-(2-fluorophenyl)ethyl)-N-(3-methoxyphenyl)benzene-sulfonamide]	1 to 10 µM
COc1ccc(N(C(C)c2ccccc2OC)S(=O)(=O)c2ccccc2F)cc1OC (stereo not drawn) [Example 93, N-(3,4-Dimethoxyphenyl)-2-fluoro-N-(1-(2-methoxy-phenyl)ethyl)benzene-sulfonamide]	1 to 10 µM
COc1cccc(N(C(C)c2ccccc2)S(=O)(=O)c2ccc(F)c(Cl)c2)c1 (stereo not drawn) [Example 94, 3-Chloro-4-fluoro-N-(3-methoxyphenyl)-N-(1-phenylethyl)benzene-sulfonamide]	1 to 10 µM
COc1cccc(N(C(C)c2ccccc2C)S(=O)(=O)c2ccc(C)c(Cl)c2)c1 (stereo not drawn) [Example 95, 3-Chloro-N-(3-methoxy-phenyl)-4-methyl-N-(1-o-tolylethyl)benzene-sulfonamide]	10 to 30 µM
COc1ccc(OC)c(C(C)N(c2ccc(C)cc2)S(=O)(=O)c2ccc(F)cc2C)c1 (stereo not drawn) [Example 96, N-(1-(2,5-Dimethoxyphenyl)ethyl)-4-fluoro-2-methyl-N-p-tolylbenzenesulfonamide]	1 to 10 µM
COc1ccc(N(C(C)c2ccccc2F)S(=O)(=O)c2ccc(F)c(Cl)c2)cc1 (stereo not drawn) [Example 97, 3-Chloro-4-fluoro-N-(1-(2-fluorophenyl)ethyl)-N-(4-methoxyphenyl) benzenesulfonamide]	1 to 10 µM
Cc1cccc(N(C(C)c2ccccc2F)S(=O)(=O)c2ccc(F)cc2C)c1 (stereo not drawn) [Example 98, 4-Fluoro-N-(1-(2-fluorophenyl)ethyl)-2-methyl-N-m-tolylbenzenesulfonamide]	1 to 10 µM
Cc1cccc(N(C(C)c2ccccc2F)S(=O)(=O)c2cc(F)ccc2C)c1 (stereo not drawn) [Example 99, 5-Fluoro-N-(1-(2-fluoro-phenyl)ethyl)-2-methyl-N-m-tolylbenzenesulfonamide]	1 to 10 µM
Cc1cccc(N(C(C)c2ccccc2F)S(=O)(=O)c2ccccc2C)c1 (stereo not drawn) [Example 100, N-(1-(2-Fluorophenyl)ethyl)-2-methyl-N-tolyl benzenesulfonamide]	1 to 10 µM
COc1cccc(C(C)N(c2ccccc2)S(=O)(=O)c2ccc(C)c(F)c2)c1 (stereo not drawn) [Example 101, 3-Fluoro-N-(1-(3-methoxyphenyl)ethyl)-4-methyl-N-phenylbenzene-sulfonamide]	1 to 10 µM
COc1cccc(C(C)N(c2cccc(OC)c2)S(=O)(=O)c2ccc(C)c(Cl)c2)c1 (stereo not drawn) [Example 102, 3-Chloro-N-(3-methoxyphenyl)-N-(1-(3-methoxy-phenyl)ethyl)-4-methyl benzenesulfonamide]	1 to 10 µM
COc1cccc(C(C)N(c2cccc(OC)c2)S(=O)(=O)c2ccc(C)c(F)c2)c1 (stereo not drawn) [Example 103, 3-Fluoro-N-(3-methoxyphenyl)-N-(1-(3-methoxy-phenyl)ethyl)-4-methyl benzenesulfonamide]	1 to 10 µM
COc1ccc(N(C(C)c2ccccc2OC)S(=O)(=O)c2ccc(C)c(Cl)c2)cc1 (stereo not drawn) [Example 104, 3-Chloro-N-(4-methoxyphenyl)-N-(1-(2-methoxy-phenyl)ethyl)-4-methyl benzenesulfonamide]	10 to 30 µM
COc1ccccc1C(C)N(c1cccc(F)c1)S(=O)(=O)c1ccc(C)c(Cl)c1 (stereo not drawn) [Example 105, 3-Chloro-N-(3-fluorophenyl)-N-(1-(2-methoxyphenyl)ethyl)-4-methylbenzene-sulfonamide]	1 to 10 µM
Cc1ccc(S(=O)(=O)N(Cc2ccccc2)c2ccccn2)cc1 [Example 106, N-Benzyl-4-methyl-N-(pyridin-2-yl) benzenesulfonamide]	1 to 10 µM
